# Where two headings read alike, the source gives them in different places.
# Tests used:
# adenosinedeaminase = details: cited from earlier work
# EMT-6 tumors [1] = assay: Radiosensitizing effect on EMT-6 tumor in mouse, 1500 rad, tumor size and cure; type: in vivo, BALB/c-strain female mice
# [2] = Survival percent of stationary-phase HA-1 cells treated with enhancer 30 minutes before X-ray irradiation; type: cell-based, Chinese hamster; details: ha-1 cells, no irradiation, control 90, read-out: Plating efficiency of the group not irradiated with X-Rays
# Protocol: (§1) (2) HA-1 cells under stationary phase prepared similarly as in (1), were irradiated with various doses (200 to 800 R) of X-rays for examination of effects of the enhancer on plating efficiencies of the cells. The treatment with the enhancer was conducted 30 minutes before irradiation. Measurement of plating efficiencies was carried out for the cells immediately after irradiation with X-rays.
# HA-1 cells = assay: as above; type: cell-based, Chinese hamster
# Protocol: as §1
# [3] = test system: Chinese hamster-HA-1 cells; assay: Plating efficiency of stationary-phase HA-1 cells given enhancer immediately after 1,000 R X-ray (inhibition of PLDR); type: cell-based; details: for Plating efficiency after 3 hours: control 1.8; for Plating efficiency after 6 hours: control 2.4; for Plating efficiency after 9 hours: control 3.8
# Protocol: (§2) (1) Cells under stationary phase, prepared by planting 2×10^5 cells/well of Chinese hamster-HA-1 cells in a multiwell dish and exchanging cultural medium every day starting on the third day and thereafter were irradiated with 1,000 R of X-rays. Immediately after radiation, 3'-dUrd, and 3'-dGuo in HANKs' balanced salt solution were administered. Then, after elapse of various times, the cells were taken off with trypsin, and a suitable number of cells were transferred into petri dishes for testing colony forming ability and plating efficiencies. The percentages of survival were calculated with corrections by the plating efficiencies with the pharmaceutical agents alone.
# [4] = as above; type: cell-based, Chinese hamster; details: chinese hamster, ha-1 cells, no irradiation, control 66, read-out: Plating efficiency, treated only with enhancer (after 9 hours)
# Protocol: as §2
# [5] = test system: potentially lethal damage repair; assay: PLDR-inhibiting / radiosensitizing activity (general statements)
# EMT-6 tumors [6] = assay: Enhancement of the effect of anti-tumor agents on EMT-6 tumor in mouse; type: in vivo, BALB/c-strain mice; details: for Mean tumor diameter 7 days after commencement of treatment: control 7.38; for Mean tumor diameter 14 days after commencement of treatment: control 9.20; for Mean tumor diameter ratio 7 days after commencement of treatment: control 1.27; for Mean tumor diameter ratio 14 days after commencement of treatment: control 1.57
# Protocol: (1) EMT-6 tumor cells (1×10^6) were inoculated intradermally into the right thighs of BALB/c-strain mice (7 weeks old). On the 10th day after inoculation of the tumor cells and thereafter, various enhancer chemicals in physiological saline solutions were administered intrapenitoneally to the mouse every other day in the indicated doses for respective agents. The pharmaceutical agents of the present invention were administered 30 minutes after administration of the anti-tumor agents. After commencement of the treatment with pharmaceutical agents, the tumor sizes were measured every other day and compared with the control group.
# [7] = 3'-dUrd 0.8 mg/mouse + irradiation 1500 rad, irradiation alone 0%
# [8] = 3'-dUrd 0.8 mg/mouse + irradiation 1500 rad, irradiation alone 0/10
# [9] = 3'-dUrd 150 μg/ml after 1,000 R
# [10] = 3'-dUrd 300 μg/ml after 1,000 R
# [11] = 3'-dUrd 600 μg/ml after 1,000 R
# [12] = ADM alone 2 mg/kg × 8, n = 10, before treatment 6.72 ± 1.00
# [13] = araC alone 50 mg/kg × 8, n = 7, before treatment 6.11 ± 0.78
# [14] = ACNU alone 25 mg/kg × 5, n = 7, before treatment 6.23 ± 0.76
compound,measurement,setting,value
OC[C@H]1O[C@@H](n2cnc3c2N=CNC[C@H]3O)C[C@@H]1O [2'-deoxycoformycin],Inhibition of adenosinedeaminase,adenosinedeaminase,inhibitor against adenosinedeaminase
"O=c1ccn([C@@H]2O[C@H](CO)C[C@H]2O)c(=O)[nH]1 [3'-dUrd, 3'-deoxyuridine]",Cure (number of mice),"EMT-6 tumors [1]; 3'-dUrd 0.8 mg/mouse + irradiation 1500 rad, 28 days, irradiation alone 1/10",3/7
same,Cure (percent),"EMT-6 tumors [1]; 3'-dUrd 0.8 mg/mouse + irradiation 1500 rad, 28 days, irradiation alone 10%",43%
same,0.5 to less than 1 of volume ratio excluding cure; Tumor regression rate: slow (percent),EMT-6 tumors [1]; [7],0%
same,Less than 0.5 of volume ratio excluding cure; Tumor regression rate: rapid (percent),EMT-6 tumors [1]; [7],14%
same,0.5 to less than 1 of volume ratio excluding cure; Tumor regression rate: slow (number),EMT-6 tumors [1]; [8],0/7
same,Less than 0.5 of volume ratio excluding cure; Tumor regression rate: rapid (number),EMT-6 tumors [1]; [8],1/7
same,1.0 to less than 2.0 of volume ratio excluding cure; regrowth: slow (number),"EMT-6 tumors [1]; 3'-dUrd 0.8 mg/mouse + irradiation 1500 rad, irradiation alone 3/10",2/7
same,2.0 or more of volume ratio excluding cure; regrowth: rapid (number),"EMT-6 tumors [1]; 3'-dUrd 0.8 mg/mouse + irradiation 1500 rad, irradiation alone 6/10",1/7
same,1.0 to less than 2.0 of volume ratio excluding cure; regrowth: slow (percent),"EMT-6 tumors [1]; 3'-dUrd 0.8 mg/mouse + irradiation 1500 rad, irradiation alone 30%",29%
same,2.0 or more of volume ratio excluding cure; regrowth: rapid (percent),"EMT-6 tumors [1]; 3'-dUrd 0.8 mg/mouse + irradiation 1500 rad, irradiation alone 60%",14%
same,Mean tumor diameter 2 weeks after treatment,"EMT-6 tumors [1]; 3'-dUrd 40 mg/kg i.p. 30 min before 1500 rad, n = 7, baseline 6.00 ± 0.41 mm, irradiation alone 7.41",6.31 ± 0.97 mm
same,Mean tumor diameter 3 weeks after treatment,"EMT-6 tumors [1]; 3'-dUrd 40 mg/kg i.p. 30 min before 1500 rad, n = 7, baseline 6.00 ± 0.41 mm, irradiation alone 8.29",4.29 ± 1.73 mm
same,Diameter ratio 2 weeks after treatment,"EMT-6 tumors [1]; 3'-dUrd 40 mg/kg i.p. 30 min before 1500 rad, n = 7, irradiation alone 1.09",1.06 ± 0.15
same,Diameter ratio 3 weeks after treatment,"EMT-6 tumors [1]; 3'-dUrd 40 mg/kg i.p. 30 min before 1500 rad, n = 7, irradiation alone 1.17",0.66 ± 0.25
same,Volume ratio 2 weeks after treatment,"EMT-6 tumors [1]; 3'-dUrd 40 mg/kg i.p. 30 min before 1500 rad, n = 7, irradiation alone 1.44",1.63 ± 0.44
same,Volume ratio 3 weeks after treatment,"EMT-6 tumors [1]; 3'-dUrd 40 mg/kg i.p. 30 min before 1500 rad, n = 7, irradiation alone 2.06",1.21 ± 0.60
same,viability,[2]; 100 μg/ml,85%
same,viability,[2]; 200 μg/ml,87%
same,viability,[2]; 400 μg/ml,85%
same,viability,[2]; 800 μg/ml,80%
same,Survival percent of the group irradiated with X-Rays,"HA-1 cells; 100 μg/ml, 200R, control 88",45%
same,Survival percent of the group irradiated with X-Rays,"HA-1 cells; 100 μg/ml, 400R, control 27",19%
same,Survival percent of the group irradiated with X-Rays,"HA-1 cells; 100 μg/ml, 600R, control 5.9",5.2%
same,Survival percent of the group irradiated with X-Rays,"HA-1 cells; 100 μg/ml, 800R, control 1.9",1.8%
same,Survival percent of the group irradiated with X-Rays,"HA-1 cells; 200 μg/ml, 200R, control 88",39%
same,Survival percent of the group irradiated with X-Rays,"HA-1 cells; 200 μg/ml, 400R, control 27",15%
same,Survival percent of the group irradiated with X-Rays,"HA-1 cells; 200 μg/ml, 600R, control 5.9",4.9%
same,Survival percent of the group irradiated with X-Rays,"HA-1 cells; 200 μg/ml, 800R, control 1.9",1.8%
same,Survival percent of the group irradiated with X-Rays,"HA-1 cells; 400 μg/ml, 200R, control 88",30%
same,Survival percent of the group irradiated with X-Rays,"HA-1 cells; 400 μg/ml, 400R, control 27",13%
same,Survival percent of the group irradiated with X-Rays,"HA-1 cells; 400 μg/ml, 600R, control 5.9",3.8%
same,Survival percent of the group irradiated with X-Rays,"HA-1 cells; 400 μg/ml, 800R, control 1.9",1.2%
same,Survival percent of the group irradiated with X-Rays,"HA-1 cells; 800 μg/ml, 200R, control 88",29%
same,Survival percent of the group irradiated with X-Rays,"HA-1 cells; 800 μg/ml, 400R, control 27",13%
same,Survival percent of the group irradiated with X-Rays,"HA-1 cells; 800 μg/ml, 600R, control 5.9",3.8%
same,Survival percent of the group irradiated with X-Rays,"HA-1 cells; 800 μg/ml, 800R, control 1.9",1.0%
same,Sensitizing effect under X-ray irradiation,"HA-1 cells; HA-1 cells, Table 2",found to exhibit sensitizing effect especially with low dosage of irradiation with X-rays
same,Plating efficiency after 3 hours,[3]; [9],1.6%
same,Plating efficiency after 6 hours,[3]; [9],2.2%
same,Plating efficiency after 9 hours,[3]; [9],3.5%
same,Plating efficiency after 3 hours,[3]; [10],1.2%
same,Plating efficiency after 6 hours,[3]; [10],1.9%
same,Plating efficiency after 9 hours,[3]; [10],3.1%
same,Plating efficiency after 3 hours,[3]; [11],0.9%
same,Plating efficiency after 6 hours,[3]; [11],1.6%
same,Plating efficiency after 9 hours,[3]; [11],2.6%
same,Inhibition of repair (PLDR) after irradiation with X-rays,"[3]; HA-1 cells, Table 1",found to inhibit repair (PLDR) after irradiation with X-rays
same,Toxicity as examined by plating efficiencies,"[3]; HA-1 cells, Table 1",Substantially no toxicity was observed
same,viability at 9 h,[4]; 3'-dUrd 150 μg/ml,65%
same,viability at 9 h,[4]; 3'-dUrd 300 μg/ml,60%
same,viability at 9 h,[4]; 3'-dUrd 600 μg/ml,58%
same,Radiosensitizing activity,[5],excellent radiosensitizing activities
"O=c1[nH]c(=O)n(C2CCCO2)cc1F (stereo not drawn) [FT-207, 1-(2-tetrahydrofuryl)-5-fluorouracil, reference compound]",Mean tumor diameter 18 days after commencement of treatment,"EMT-6 tumors [6]; FT-207 alone 100 mg/kg × 6, n = 9, before treatment 6.96 ± 1.43, control 11.43",8.37 ± 2.12 mm
same,Mean tumor diameter ratio 18 days after commencement of treatment,"EMT-6 tumors [6]; FT-207 alone 100 mg/kg × 6, n = 9, control 1.97",1.20 ± 0.31
"COc1cccc2c1C(=O)c1c(O)c3c(c(O)c1C2=O)C[C@@](O)(C(=O)CO)C[C@@H]3O[C@H]1C[C@H](N)[C@H](O)[C@H](C)O1 [ADM, Adriamycin, reference compound]",Mean tumor diameter 7 days after commencement of treatment,EMT-6 tumors [6]; [12],7.67 ± 1.30 mm
same,Mean tumor diameter 14 days after commencement of treatment,EMT-6 tumors [6]; [12],9.04 ± 1.77 mm
same,Mean tumor diameter ratio 7 days after commencement of treatment,"EMT-6 tumors [6]; ADM alone 2 mg/kg × 8, n = 10",1.17 ± 0.29
same,Mean tumor diameter ratio 14 days after commencement of treatment,"EMT-6 tumors [6]; ADM alone 2 mg/kg × 8, n = 10",1.38 ± 0.36
"Nc1ccn([C@@H]2O[C@H](CO)[C@@H](O)[C@@H]2O)c(=O)n1 [araC, 1-β-D-arabinofuranosylcytosine, reference compound]",Mean tumor diameter 7 days after commencement of treatment,EMT-6 tumors [6]; [13],7.11 ± 1.48 mm
same,Mean tumor diameter 14 days after commencement of treatment,EMT-6 tumors [6]; [13],8.07 ± 2.62 mm
same,Mean tumor diameter ratio 7 days after commencement of treatment,"EMT-6 tumors [6]; araC alone 50 mg/kg × 8, n = 7",1.16 ± 0.18
same,Mean tumor diameter ratio 14 days after commencement of treatment,"EMT-6 tumors [6]; araC alone 50 mg/kg × 8, n = 7",1.38 ± 0.46
"Cc1ncc(CNC(=O)N(CCCl)N=O)c(N)n1 [ACNU, reference compound]",Mean tumor diameter 7 days after commencement of treatment,EMT-6 tumors [6]; [14],5.51 ± 1.91 mm
same,Mean tumor diameter 14 days after commencement of treatment,EMT-6 tumors [6]; [14],6.54 ± 1.82 mm
same,Mean tumor diameter ratio 7 days after commencement of treatment,"EMT-6 tumors [6]; ACNU alone 25 mg/kg × 5, n = 7",0.87 ± 0.21
same,Mean tumor diameter ratio 14 days after commencement of treatment,"EMT-6 tumors [6]; ACNU alone 25 mg/kg × 5, n = 7",1.06 ± 0.29
"Bleomycin [BLM, reference compound]",Mean tumor diameter 18 days after commencement of treatment,"EMT-6 tumors [6]; BLM alone 25 mg/kg × 4, n = 10, before treatment 6.12 ± 1.17, control 11.43 ± 2.30",9.77 ± 2.50 mm
same,Mean tumor diameter ratio 18 days after commencement of treatment,"EMT-6 tumors [6]; BLM alone 25 mg/kg × 4, n = 10, control 1.97 ± 0.40",1.60 ± 0.41

# From patent publication US4434788A, “Enhancer of anti-tumor effect” (Yamasa Shoyu Kabushiki Kaisha, priority 1980, dated 1984)
